± gives the standard deviation of the reports.
| Compound | glass transition temperature |
| --- | --- |
| *c1ccc(Oc2ccc(N3C(=O)c4ccc(-c5ccc6c(c5)C(=O)N(*)C6=O)cc4C3=O)cc2Br)c(Br)c1 (repeat unit) | 275.00 °C |
| *C1CCOC1* (repeat unit) | 131.00 °C |
| *CCOC(=O)CCCCCCCCCCC(=O)OCCOC(=O)c1ccc(C(=O)O*)cc1 (repeat unit) | -8.00 °C |
| *C(=O)Nc1cc(C(F)(F)F)ccc1Oc1cccc2c(Oc3ccc(C(F)(F)F)cc3NC(=O)c3ccc4c(c3)C(=O)N(c3ccc(Oc5ccc(N6C(=O)c7ccc(*)cc7C6=O)cc5-c5ccccc5)c(-c5ccccc5)c3)C4=O)cccc12 (repeat unit) | 376.00 °C |
| *c1cccc(P(=O)(c2ccccc2)c2cccc(N3C(=O)c4ccc(NC(=O)OCCOc5ccc(P(=O)(c6ccccc6)c6ccc(OCCOC(=O)Nc7ccc8c(c7)C(=O)N(*)C8=O)cc6)cc5)cc4C3=O)c2)c1 (repeat unit) | 218.00 °C |
| *c1ccc2c(c1)C(=O)N(c1ccc(Oc3ccc(N4C(=O)c5ccc(C(*)(C(F)(F)F)C(F)(F)F)cc5C4=O)cc3)cc1)C2=O (repeat unit) | 295.50 ± 11 °C |
| *OC(CCl)COC(=O)C1=C(C(=O)OCC(CCl)OC(=O)c2ccc(C(*)=O)cc2)C2C=CC1C2 (repeat unit) | 72.00 °C |
| *CCCNC(=O)Cc1ccc(C(=O)N*)cc1 (repeat unit) | 109.00 °C |
| *OC(=O)NC1CCC(CC2CCC(NC(=O)OC3CC4CC(*)CC(C3)O4)CC2)CC1 (repeat unit) | 225.00 °C |
| *CCCCCCCCCCCCCCCCOC(=O)Nc1ccc(Cc2ccc(NC(=O)O*)cc2)cc1 (repeat unit) | 40.00 °C |
| *CC(*)C(=O)Oc1ccccc1C(C)(C)C (repeat unit) | 72.00 °C |
| *CC(OC)C1C(=O)OC(=O)C1* (repeat unit) | 153.50 °C |
| *c1ccc(Nc2nc(Nc3ccc(-c4nc5cc(-c6ccc7[nH]c(*)nc7c6)ccc5[nH]4)cc3)nc(N(c3ccccc3)c3ccccc3)n2)cc1 (repeat unit) | 329.00 °C |
| *OC(CC(*)=O)C(C)(Cl)Cl (repeat unit) | 109.00 °C |
| *Oc1cccc(Oc2ccc(C(=O)c3ccc(*)cc3)cc2)c1 (repeat unit) | 125.00 °C |
| *N=P(*)(OCCOCCOCCOP1(OCCOCCOC)=NP(OCCOCCOC)(OCCOCCOC)=NP(OCCOCCOC)(OCCOCCOC)=N1)OCCOCCOCCOP1(OCCOCCOC)=NP(OCCOCCOC)(OCCOCCOC)=NP(OCCOCCOC)(OCCOCCOC)=N1 (repeat unit) | -38.00 °C |
| *CCCCCCCCCCCCN1C(=O)c2ccc(Oc3ccc4c(c3)C(=O)N(*)C4=O)cc2C1=O (repeat unit) | 70.00 °C |
| *CCCOc1ccc(-c2ccc(O*)c3ccccc23)c2ccccc12 (repeat unit) | 182.00 °C |
| *Oc1ccc(CC(NC(=O)Cc2ccc(OC(=O)CC(C)CCC(*)=O)cc2)C(=O)OCC)cc1 (repeat unit) | 63.00 °C |
| *CC(*)c1ccc([Si](C)(O[Si](C)(C)C)O[Si](C)(C)C)cc1 (repeat unit) | 54.00 °C |
| *CC(*)CCc1ccccc1 (repeat unit) | 10.00 °C |
| *CC(=O)OC(=O)COc1ccc(O*)cc1 (repeat unit) | 70.00 °C |
| *c1cccc(OCCCCCCCCOc2cccc(N3C(=O)c4ccc(-c5cccc6c5C(=O)N(*)C6=O)cc4C3=O)c2)c1 (repeat unit) | 142.00 °C |
| *CC(*)c1ccc(CC)cc1 (repeat unit) | 71.40 °C |
| *OC(C)C(=O)NC(C)C(*)=O (repeat unit) | 57.7 °C |

| Compound | glass transition temperature |
| --- | --- |
| *CC(*)(C)C(=O)OCCCCCCCCCCOc1ccc(OC(=O)c2ccc(OCCCC)cc2)cc1 (repeat unit) | 31.00 °C |
| *C(=O)Nc1cccc(NC(=O)c2ccc3[nH]c(-c4ccc(-c5nc6cc(*)ccc6[nH]5)cc4)nc3c2)c1 (repeat unit) | 294.00 °C |
| *Nc1cccc(NC(=O)CCCCCCCCC(=O)Nc2ccc(C(=O)NC(*)=S)cc2)c1 (repeat unit) | 265.00 °C |
| *CCN(CCOC(=O)c1cccc(C(=O)O*)c1)c1ccccc1 (repeat unit) | 60.00 °C |
| *C(=O)c1ccc2c(c1)C(=O)N(c1ccc(Cc3ccc(N4C(=O)c5ccc(*)cc5C4=O)cc3)cc1)C2=O (repeat unit) | 292.50 ± 9.3 °C |
| *Sc1ccc(Nc2ccc(*)cc2)cc1 (repeat unit) | 145.00 °C |
| *c1ccc(C(=O)NCCCCCCCCCCCCNC(=O)c2ccc(-c3nc4ccccc4nc3*)cc2)cc1 (repeat unit) | 154.00 °C |
| *CCCCCCNC(=O)CCC1(CCC(=O)N*)c2ccccc2-c2ccccc21 (repeat unit) | 122.00 °C |
| *c1cccc(Oc2ccc(P(=O)(c3ccccc3)c3ccccc3)c(Oc3cccc(N4C(=O)c5ccc(Oc6ccc7c(c6)C(=O)N(*)C7=O)cc5C4=O)c3)c2)c1 (repeat unit) | 212.00 °C |
| *Oc1ccc(C(c2ccc(Oc3ccc(C(=O)c4ccccc4-c4ccccc4C(=O)c4ccc(*)cc4)cc3)cc2)(C(F)(F)F)C(F)(F)F)cc1 (repeat unit) | 178.50 °C |
| *CCCCCOc1cccc(NC(=O)c2cccc(C(=O)Nc3cccc(O*)c3)c2)c1 (repeat unit) | 131.50 °C |
| *CCCCCCNC(=O)c1ccc(C2(C)CC(C)(C)c3ccc(C(=O)N*)cc32)cc1 (repeat unit) | 190.00 °C |
| *CCOc1ccc(OC(=O)c2ccc(C(=O)Oc3ccc(O*)cc3)c(OCCCCC)c2)cc1 (repeat unit) | 95.00 °C |
| *CCCCCCCOC(=O)Nc1ccc(C)c(NC(=O)O*)c1 (repeat unit) | 61.00 °C |
| *CC(*)(C)C(=O)OC12CC3CC(C)(CC(C)(C3)C1)C2 (repeat unit) | 194.00 °C |
| *c1ccc(NC(=O)c2cc(NC(=O)c3ccc(NC(=O)C(C)N4C(=O)c5ccccc5C4=O)cc3)cc(C(=O)Nc3ccc(S(*)(=O)=O)cc3)c2)cc1 (repeat unit) | 208.00 °C |
| *CC(*)c1nc(C)nc(C)n1 (repeat unit) | 70.00 °C |
| *c1cccc(NC(=O)CCCCCCC(=O)Nc2cccc(S(*)(=O)=O)c2)c1 (repeat unit) | 125.00 °C |
| *Oc1ccc2c(c1)C(C)(c1ccc(OC(=O)c3cccc(C(*)=O)c3)cc1)CC2(C)C (repeat unit) | 230.50 °C |
| *CC#C/C(C#CCOC(=O)CCCCCCCCC(=O)O*)=C\c1ccc(C#Cc2ccccc2)cc1 (repeat unit) | 60.00 °C |
| *Oc1c(C)cc(C(C)(C)c2cc(C)c(OC(=O)CCCCCC(*)=O)c(C)c2)cc1C (repeat unit) | 84.00 °C |
| *CCCCCCCCCCSSS* (repeat unit) | -70.00 °C |
| *Oc1ccc2c(c1)C1(CC2(C)C)CC(C)(C)c2ccc(OC(=O)c3cccc(C(*)=O)c3)cc21 (repeat unit) | 245.00 °C |
| *Oc1ccc(C(=O)Nc2cc(SCCC#N)c(NC(=O)c3ccc(*)cc3)cc2SCCC#N)cc1 (repeat unit) | 158.00 °C |
| *Oc1ccc(OC(=O)c2ccc(OCCCCCCCCCCCCOc3ccc(C(*)=O)cc3)cc2)cc1S(=O)(=O)c1ccccc1 (repeat unit) | 82.70 °C |

Source: the PolyMetriX glass transition set
